Laboratory results: US20230322846A9, “NEUROACTIVE STEROIDS AND THEIR METHODS OF USE” (SAGE THERAPEUTICS, INC., priority 2018, published 2023)

Tests used:
[1] = target: [35S]-TBPS binding, rat brain cortical membranes; assay: Steroid inhibition of [35S]-TBPS binding; conditions: 3 nM [35S]-TBPS, in the presence of 5 mM GABA
Procedure, shortened: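 Rat cortical P2 membranes incubated 90 min at room temperature with 3 nM [35S]-TBPS, […] and test compound (0.5% DMSO final) in NaCl/Na–K phosphate pH 7.4; nonspecific binding with […]. Filter-bound radioactivity counted; IC50 and Imax from nonlinear fits, mean ± SEM.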

[2] = target: human GABAA receptors composed of the α4β3δ subunits (Homo sapiens (Human), UniProt O14764+P28472+P48169); assay: α4β3δ SyncroPatch automated patch clamp assay; format: cell-based; conditions: for EC50: HEK cells, potentiation of submaximal GABA current, clamped at −120 mV; for α4β3δ EMAX: peak current after GABA+compound divided by peak current after GABA alone
Sequence of human GABAA receptors composed of the α4β3δ subunits (P48169 36-554 limits assumed): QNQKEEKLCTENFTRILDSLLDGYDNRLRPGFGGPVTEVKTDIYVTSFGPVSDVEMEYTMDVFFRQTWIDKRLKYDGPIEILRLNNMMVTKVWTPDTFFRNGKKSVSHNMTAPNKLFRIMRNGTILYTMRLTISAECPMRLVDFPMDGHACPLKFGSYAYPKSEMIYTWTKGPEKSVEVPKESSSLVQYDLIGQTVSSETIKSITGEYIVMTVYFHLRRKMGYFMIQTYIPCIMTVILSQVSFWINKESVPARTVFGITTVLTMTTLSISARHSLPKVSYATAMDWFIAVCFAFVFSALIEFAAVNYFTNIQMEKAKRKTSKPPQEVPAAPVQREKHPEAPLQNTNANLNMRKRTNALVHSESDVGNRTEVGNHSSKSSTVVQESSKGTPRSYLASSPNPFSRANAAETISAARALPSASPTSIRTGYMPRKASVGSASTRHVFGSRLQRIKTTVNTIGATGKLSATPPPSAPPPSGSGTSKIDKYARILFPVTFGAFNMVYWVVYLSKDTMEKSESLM
Sequence of human GABAA receptors composed of the α4β3δ subunits (P28472 26-473 limits assumed): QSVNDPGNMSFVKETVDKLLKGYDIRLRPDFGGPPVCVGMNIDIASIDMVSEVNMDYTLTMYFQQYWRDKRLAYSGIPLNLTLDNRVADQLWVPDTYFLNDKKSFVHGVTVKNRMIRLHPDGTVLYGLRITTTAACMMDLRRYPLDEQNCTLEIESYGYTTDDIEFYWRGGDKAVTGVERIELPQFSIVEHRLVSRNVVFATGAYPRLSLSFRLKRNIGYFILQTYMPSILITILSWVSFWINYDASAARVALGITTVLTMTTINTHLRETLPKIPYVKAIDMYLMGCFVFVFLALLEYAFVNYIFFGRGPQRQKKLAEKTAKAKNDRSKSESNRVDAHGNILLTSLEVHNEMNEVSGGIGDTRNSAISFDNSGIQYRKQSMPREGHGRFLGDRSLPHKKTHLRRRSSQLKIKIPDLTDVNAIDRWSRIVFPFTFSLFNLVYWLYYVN
Sequence of human GABAA receptors composed of the α4β3δ subunits (O14764 17-452 limits assumed): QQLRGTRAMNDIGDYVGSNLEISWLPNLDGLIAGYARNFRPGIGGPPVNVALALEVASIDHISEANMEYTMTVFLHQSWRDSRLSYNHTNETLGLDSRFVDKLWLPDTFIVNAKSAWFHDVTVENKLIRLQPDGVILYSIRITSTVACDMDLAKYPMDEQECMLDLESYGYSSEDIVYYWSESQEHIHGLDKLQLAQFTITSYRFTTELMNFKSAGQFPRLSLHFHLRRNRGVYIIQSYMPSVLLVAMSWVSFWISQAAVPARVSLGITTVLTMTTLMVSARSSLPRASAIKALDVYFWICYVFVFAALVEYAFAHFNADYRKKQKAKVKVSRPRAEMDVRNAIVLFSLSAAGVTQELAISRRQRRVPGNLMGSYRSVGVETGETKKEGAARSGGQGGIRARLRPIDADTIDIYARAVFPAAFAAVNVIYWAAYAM
Description: (§1) The SyncroPatch 384PE (Nanion, Germany) automated patch clamp platform was used to obtain recordings from human embryonic kidney cells stably expressing human GABAA receptors composed of the α1β2γ2 and α4β3δ subunits. Cells were bathed in an extracellular solution containing: 140 mM NaCl, 4 mM KCl, 2 mM CaCl2), 1 mM MgCl2, 10 mM HEPES, 5 mM glucose and 0.1% DMSO. Solution was maintained at pH 7.4 with NaOH and 300 mOsm/L. Chips with multi-hole (4×) medium resistance (2-3M) are used for the recombinant cell line experiments. Once harvested, cells are stored in extracellular solution set to 10° C. in the cell hotel with a minimum shaking speed of 200 rpm before addition to the chip at the beginning of each experiment. Whole cell patch clamp recordings were made using an intracellular solution containing: 90 mM KCl, 50 mM KF, 1.5 mM MgCl2, 11.1 mM EGTA and 10 mM HEPES, 2 mM NaATP, maintained at pH 7.2 with KOH. Currents are leak corrected (using P/2 leak correction protocol) and sampled at 5 kHz. Cells were clamped at −120 mV. After establishing a stable baseline, a submaximal concentration of GABA (3-5 μM for cells expressing α1β2γ2 and 10 μM for cells expressing […]) was applied at a rate of 10 μl/second, immediately followed by application of GABA+compound (10 μl/second) at a single concentration of compound per cell. Compounds were tested at six concentrations (0.029, 0.12, 0.47, 1.88, 7.5, and 30 μM) in n=8-12 cells per concentration. Compound effect was determined by dividing peak current amplitude after GABA+compound by peak current amplitude after GABA alone. EC50 and Emax values were determined from average values for each concentration.

[3] = target: human GABAA receptors composed of the α1β2γ2 subunits (Homo sapiens (Human), UniProt P14867+P18507+P47870); assay: α1β2γ2 SyncroPatch automated patch clamp assay; format: cell-based; conditions: for EC50: HEK cells, potentiation of submaximal GABA current, clamped at −120 mV; for α1β2γ2 EMAX: peak current after GABA+compound divided by peak current after GABA alone
Sequence of human GABAA receptors composed of the α1β2γ2 subunits (P14867 28-456 limits assumed): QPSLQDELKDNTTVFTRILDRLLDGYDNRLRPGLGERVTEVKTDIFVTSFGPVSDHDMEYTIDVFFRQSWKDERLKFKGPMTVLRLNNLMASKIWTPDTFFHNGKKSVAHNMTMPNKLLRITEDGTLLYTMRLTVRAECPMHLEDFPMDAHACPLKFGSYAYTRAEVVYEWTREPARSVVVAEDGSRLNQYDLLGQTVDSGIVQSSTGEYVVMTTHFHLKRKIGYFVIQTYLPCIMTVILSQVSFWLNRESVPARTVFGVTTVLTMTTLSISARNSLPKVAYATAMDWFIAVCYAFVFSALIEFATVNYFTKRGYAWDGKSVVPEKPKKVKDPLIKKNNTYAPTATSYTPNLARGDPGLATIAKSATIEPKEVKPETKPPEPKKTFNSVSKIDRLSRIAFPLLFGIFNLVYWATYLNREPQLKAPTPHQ
Sequence of human GABAA receptors composed of the α1β2γ2 subunits (P47870 25-512 limits assumed): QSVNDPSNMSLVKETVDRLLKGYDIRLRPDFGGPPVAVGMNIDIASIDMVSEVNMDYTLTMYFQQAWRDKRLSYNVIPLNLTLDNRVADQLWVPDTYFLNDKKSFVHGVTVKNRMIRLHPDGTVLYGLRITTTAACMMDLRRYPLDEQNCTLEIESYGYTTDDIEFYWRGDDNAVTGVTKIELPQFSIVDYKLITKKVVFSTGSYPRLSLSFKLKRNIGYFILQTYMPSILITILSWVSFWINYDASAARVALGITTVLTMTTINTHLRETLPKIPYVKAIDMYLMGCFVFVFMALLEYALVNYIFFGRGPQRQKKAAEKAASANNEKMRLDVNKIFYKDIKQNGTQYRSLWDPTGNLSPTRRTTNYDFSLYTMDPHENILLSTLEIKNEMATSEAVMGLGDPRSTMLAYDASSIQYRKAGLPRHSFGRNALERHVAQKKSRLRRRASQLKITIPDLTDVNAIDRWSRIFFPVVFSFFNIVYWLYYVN
Sequence of human GABAA receptors composed of the α1β2γ2 subunits (P18507 40-475 limits assumed): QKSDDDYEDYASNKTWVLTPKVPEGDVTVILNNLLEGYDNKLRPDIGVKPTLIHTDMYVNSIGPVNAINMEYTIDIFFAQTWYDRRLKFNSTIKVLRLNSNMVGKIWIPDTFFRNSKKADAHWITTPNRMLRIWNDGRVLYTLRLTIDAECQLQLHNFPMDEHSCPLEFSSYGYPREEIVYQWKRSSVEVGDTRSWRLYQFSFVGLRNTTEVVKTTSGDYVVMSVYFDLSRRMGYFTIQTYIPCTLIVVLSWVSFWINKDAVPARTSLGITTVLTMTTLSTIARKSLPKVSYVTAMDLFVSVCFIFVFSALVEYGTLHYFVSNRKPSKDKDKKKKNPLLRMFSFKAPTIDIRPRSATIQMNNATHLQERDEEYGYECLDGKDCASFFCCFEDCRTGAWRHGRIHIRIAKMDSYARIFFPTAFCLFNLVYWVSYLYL
Description: as §1

Structure (SMILES)	IC50 [1] [µM]	EC50 [2] [µM]	α4β3δ EMAX [2]	EC50 [3] [µM]	α1β2γ2 EMAX [3]
CC[C@@]1(O)CC[C@H]2[C@H](CC[C@@H]3[C@@H]2CC[C@]2(C)[C@@H]([C@H](C)Cn4cc(C#N)cn4)CC[C@@H]32)C1 [Example 276, 1-((S)-2-((3R,5R,8R,9R,10S,13S,14S,17R)-3-ethyl-3-hydroxy-13-methylhexadecahydro-1H-cyclopenta[a]phenanthren-17-yl)propyl)-1H-pyrazole-4-carbonitrile]	< 0.1	< 0.2	A (A indicates an Emax response <30)	0.2 to 1	B (B indicates an Emax response 8 to <10)
CCOC[C@@]1(O)CC[C@@]2(C)[C@H](CC[C@@H]3[C@@H]2CC[C@]2(C)[C@@H]([C@H](C)Cn4ccc(C#N)n4)CC[C@@H]32)C1 [Example 278, 1-((S)-2-((3R,5R,8R,9S,10S,13S,14S,17R)-3-(ethoxymethyl)-3-hydroxy-10,13-dimethylhexadecahydro-1H-cyclopenta[a]phenanthren-17-yl)propyl)-1H-pyrazole-3-carbonitrile]	< 0.1	< 0.2	A (A indicates an Emax response <30)	< 0.2	A (A indicates an Emax response <8)
CCOC[C@@]1(O)CC[C@@]2(C)[C@H](CC[C@@H]3[C@@H]2CC[C@]2(C)[C@@H]([C@@H](C)Cn4nccc4C#N)CC[C@@H]32)C1 [Example 280, 1-((R)-2-((3R,5R,8R,9S,10S,13S,14S,17R)-3-(ethoxymethyl)-3-hydroxy-10,13-dimethylhexadecahydro-1H-cyclopenta[a]phenanthren-17-yl)propyl)-1H-pyrazole-5-carbonitrile]	< 0.1	< 0.2	B (B indicates an Emax response 30 to <45)	< 0.2	C (C indicates an Emax response ≥10)
CCOC[C@@]1(O)CC[C@H]2[C@H](CC[C@@H]3[C@@H]2CC[C@]2(C)[C@@H]([C@H](C)Cn4nccc4C#N)CC[C@@H]32)C1 [Example 286, 1-((S)-2-((3R,5R,8R,9R,10S,13S,14S,17R)-3-(ethoxymethyl)-3-hydroxy-13-methylhexadecahydro-1H-cyclopenta[a]phenanthren-17-yl)propyl)-1H-pyrazole-5-carbonitrile]	< 0.1	0.2 to 1	A (A indicates an Emax response <30)	< 0.2	B (B indicates an Emax response 8 to <10)
CCOC[C@@]1(O)CC[C@H]2[C@H](CC[C@@H]3[C@@H]2CC[C@]2(C)[C@@H]([C@H](C)Cn4ccc(C#N)n4)CC[C@@H]32)C1 [Example 287, 1-((S)-2-((3R,5R,8R,9R,10S,13S,14S,17R)-3-(ethoxymethyl)-3-hydroxy-13-methylhexadecahydro-1H-cyclopenta[a]phenanthren-17-yl)propyl)-1H-pyrazole-3-carbonitrile]	< 0.1	0.2 to 1	A (A indicates an Emax response <30)	0.2 to 1	B (B indicates an Emax response 8 to <10)
CCC[C@@]1(O)CC[C@H]2[C@H](CC[C@@H]3[C@@H]2CC[C@]2(C)[C@@H]([C@H](C)Cn4nnc(C)n4)CC[C@@H]32)C1 [Example 293, (3R,5R,8R,9R,10S,13S,14S,17R)-13-methyl-17-((S)-1-(5-methyl-2H-tetrazol-2-yl)propan-2-yl)-3-propylhexadecahydro-1H-cyclopenta[a]phenanthren-3-ol]	< 0.1	0.2 to 1	A (A indicates an Emax response <30)	≥ 1	A (A indicates an Emax response <8)
CCC[C@@]1(O)CC[C@H]2[C@H](CC[C@@H]3[C@@H]2CC[C@]2(C)[C@@H]([C@@H](C)Cn4nnc(C)n4)CC[C@@H]32)C1 [Example 294, (3R,5R,8R,9R,10S,13S,14S,17R)-13-methyl-17-((R)-1-(5-methyl-2H-tetrazol-2-yl)propan-2-yl)-3-propylhexadecahydro-1H-cyclopenta[a]phenanthren-3-ol]	< 0.1	0.2 to 1	B (B indicates an Emax response 30 to <45)	0.2 to 1	C (C indicates an Emax response ≥10)
CC(C)C[C@@]1(O)CC[C@H]2[C@H](CC[C@@H]3[C@@H]2CC[C@]2(C)[C@@H]([C@@H](C)Cn4cc(C#N)cn4)CC[C@@H]32)C1 [Example 299, 1-((R)-2-((3S,5R,8R,9R,10S,13S,14S,17R)-3-hydroxy-3-isobutyl-13-methylhexadecahydro-1H-cyclopenta[a]phenanthren-17-yl)propyl)-1H-pyrazole-4-carbonitrile]	< 0.1	< 0.2	B (B indicates an Emax response 30 to <45)	≥ 1	–
C[C@@H](Cn1cc(C#N)cn1)[C@H]1CC[C@H]2[C@@H]3CC[C@@H]4C[C@@](O)(CC5CC5)CC[C@@H]4[C@H]3CC[C@]12C [Example 303, 1-((R)-2-((3S,5R,8R,9R,10S,13S,14S,17R)-3-(cyclopropylmethyl)-3-hydroxy-13-methylhexadecahydro-1H-cyclopenta[a]phenanthren-17-yl)propyl)-1H-pyrazole-4-carbonitrile]	< 0.1	< 0.2	B (B indicates an Emax response 30 to <45)	< 0.2	C (C indicates an Emax response ≥10)
CCCC[C@@]1(O)CC[C@H]2[C@H](CC[C@@H]3[C@@H]2CC[C@]2(C)[C@@H]([C@@H](C)Cn4cc(C#N)cn4)CC[C@@H]32)C1 [Example 311, 1-((R)-2-((3R,5R,8R,9R,10S,13S,14S,17R)-3-butyl-3-hydroxy-13-methylhexadecahydro-1H-cyclopenta[a]phenanthren-17-yl)propyl)-1H-pyrazole-4-carbonitrile]	< 0.1	0.2 to 1	B (B indicates an Emax response 30 to <45)	< 0.2	C (C indicates an Emax response ≥10)
CCC[C@@]1(O)CC[C@@]2(COC)[C@H](CC[C@H]3[C@@H]4CC[C@H]([C@H](C)Cn5nnc(C)n5)[C@@]4(C)CC[C@@H]32)C1 [Example 320, (3R,5R,8S,9S,10R,13S,14S,17R)-10-(methoxymethyl)-13-methyl-17-((S)-1-(5-methyl-2H-tetrazol-2-yl)propan-2-yl)-3-propylhexadecahydro-1H-cyclopenta[a]phenanthren-3-ol]	< 0.1	0.2 to 1	C (C indicates an Emax response ≥45)	0.2 to 1	B (B indicates an Emax response 8 to <10)
CCC[C@@]1(O)CC[C@H]2[C@H](CC[C@@H]3[C@@H]2CC[C@]2(C)[C@@H]([C@H](C)Cn4nnnc4C)CC[C@@H]32)C1 [Example 323, (3R,5R,8R,9R,10S,13S,14S,17R)-13-methyl-17-(1-(5-methyl-1H-tetrazol-1-yl)propan-2-yl)-3-propylhexadecahydro-1H-cyclopenta[a]phenanthren-3-ol]	< 0.1	0.2 to 1	B (B indicates an Emax response 30 to <45)	< 0.2	C (C indicates an Emax response ≥10)
